{
  "source": "paper PMC3367438",
  "about": "(2011)",
  "target": "Aβ42 (β-amyloid peptide) (Homo sapiens, UniProt P05067)",
  "sequence (P05067 672-713 limits assumed)": "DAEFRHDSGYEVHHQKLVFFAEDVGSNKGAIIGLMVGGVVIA",
  "experiment": "fluorescence polarization of the intrinsically fluorescent probe",
  "assay_type": "binding",
  "note": "pKd: −log10 of the molar value.",
  "data": [
    {"smiles": "COc1cc(C=CC(=O)C(Cc2cn(CCCCCCNC(=O)CCNC(=O)CCNC(=O)COC3CCC4(C)C(=CCC5C4CCC4(C)C(C(C)CCCC(C)C)CCC54)C3)nn2)C(=O)C=Cc2ccc(O)c(OC)c2)ccc1O", "note": "(stereo not shown) [compound 7, BMAOI 14]", "values": [
      {"measurement": "pKd", "result": 6.08}
    ]}
  ]
}
